Assays:
Type in all cases: cell-based
[1] = test system: HAP1 MTAP-deleted cell line; test: Viability assay (CellTiter-Glo), HAP1 MTAP-deleted; settings: HAP1 MTAP-deleted cells, 7 days
Outline: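 HAP1 MTAP-deleted and MTAP-intact cells seeded, then dosed next day (n=3, 0.2% DMSO) and grown 7 days. Viability by CellTiter-Glo luminescence, expressed as % of DMSO control per cell line.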

[2] = test system: SDMA (PRMT5 activity) in HAP1 MTAP-deleted cell line; test: SDMA in-cell western assay, HAP1 MTAP-deleted; settings: for IC50 / IC90: SDMA in-cell western, HAP1 MTAP-deleted cells, 24 hours compound incubation; for Hap1 MTAP intact/deleted ratio: ratio of SDMA IC50 in HAP1 MTAP-intact to HAP1 MTAP-deleted cell line
[3] = test system: SDMA (PRMT5 activity) in HAP1 MTAP-intact cell line; test: SDMA in-cell western assay, HAP1 MTAP-intact; settings: SDMA in-cell western, HAP1 MTAP-intact cells, 24 hours compound incubation

SMILES	IC50 ([1]; Homo sapiens, 168 h) [nM]	IC50 ([2]; Homo sapiens) [nM]	IC90 ([2]; Homo sapiens) [nM]	Hap1 MTAP intact/deleted ratio [2]	IC50 ([3]; Homo sapiens, HAP1, 24 h) [nM]	IC50 [1] [nM]	IC50 [2] [nM]	IC90 [2] [nM]	IC50 [3] [nM]	IC50 ([3]; Homo sapiens) [nM]
CCc1cc(NC(=O)C(=O)N2C[C@@H](C)CC[C@@H]2c2ccc3sc([C@H]4C[C@H](C)CN(C)C4)nc3c2)cnc1N (single isomer, unassigned) [Compound 75]	< 100	5 to 50	< 75	B (“B” indicates an IC50 ratio greater than or equal to 15 fold but lower than 30 fold)	> 50					
COc1ncc(NC(=O)C(=O)N2C[C@@H](C)CC[C@@H]2c2ccc3sc([C@@H]4CN(C)C(C)(C)C4)nc3c2)cc1C(N)=O (single isomer, unassigned) [Compound 30]	< 100	< 5	< 75	B (“B” indicates an IC50 ratio greater than or equal to 15 fold but lower than 30 fold)	> 50					
CCc1cc(NC(=O)C(=O)N2C[C@@H](C)CC[C@@H]2c2ccc3c(c2)OC2(CCN(C)CC2)C3)cnc1N [Compound 31, N-(6-amino-5-ethylpyridin-3-yl)-2-((2R,5S)-5-methyl-2-(1′-methyl-3H-spiro[benzofuran-2,4′-piperidin]-6-yl)piperidin-1-yl)-2-oxoacetamide]	100 to 1000	5 to 50	> 125	A (“A” indicates an IC50 ratio greater than or equal to 30 fold)	> 50					
CCc1cc(NC(=O)C(=O)N2C[C@@H](C)CC[C@@H]2c2ccc3cn(C4CN(C)CC(C)(C)C4)nc3c2)cnc1N (single isomer, unassigned) [Compound 114]				B (“B” indicates an IC50 ratio greater than or equal to 15 fold but lower than 30 fold)		< 100	< 5	< 75	5 to 50	
CCc1cc(NC(=O)C(=O)N2C[C@@H](C)CC[C@@H]2c2ccc3sc([C@@H]4CN(C)CC(C)(C)C4)nc3c2)cnc1N (single isomer, unassigned) [Compound 105]	< 100	< 5	< 75	A (“A” indicates an IC50 ratio greater than or equal to 30 fold)	> 50					
CCc1cc(NC(=O)C(=O)N2C[C@@H](C)CC[C@@H]2c2ccc3cn([C@H]4CCN(C)C4)nc3c2)cnc1N [Compound 117, N-(6-amino-5-ethylpyridin-3-yl)-2-((2R,5S)-5-methyl-2-(2-((S)-1-methylpyrrolidin-3-yl)-2H-indazol-6-yl)piperidin-1-yl)-2-oxoacetamide]	< 100	5 to 50	< 75	C (“C” indicates an IC50 ratio of less than 15 fold)	> 50					
CCc1cc(NC(=O)C(=O)N2C[C@@H](C)CC[C@@H]2c2ccc3sc([C@@H]4CN(C)C(C)(C)C4)nc3c2)cnc1N (single isomer, unassigned) [Compound 56]	< 100	< 5	< 75	B (“B” indicates an IC50 ratio greater than or equal to 15 fold but lower than 30 fold)	5 to 50					
CCc1cc(NC(=O)C(=O)N2C[C@@H](C)CC[C@@H]2c2ccc3cn([C@@H]4CCN(C)C4)nc3c2)cnc1N [Compound 112, N-(6-amino-5-ethylpyridin-3-yl)-2-((2R,5S)-5-methyl-2-(2-((R)-1-methylpyrrolidin-3-yl)-2H-indazol-6-yl)piperidin-1-yl)-2-oxoacetamide]	< 100	< 5	< 75	B (“B” indicates an IC50 ratio greater than or equal to 15 fold but lower than 30 fold)	5 to 50					
CCc1cc(NC(=O)C(=O)N2C[C@@H](C)CC[C@@H]2c2ccc3sc([C@H]4CCN(C)C[C@@H]4OC)nc3c2)cnc1N (single isomer, unassigned) [Compound 90]	< 100	< 5	< 75	A (“A” indicates an IC50 ratio greater than or equal to 30 fold)	> 50					
COc1ncc(NC(=O)C(=O)N2C[C@@H](C)CC[C@@H]2c2ccc3cn([C@@H]4CCN(C)C4)nc3c2)cc1C(N)=O [Compound 102, 2-methoxy-5-(2-((2R,5S)-5-methyl-2-(2-((R)-1-methylpyrrolidin-3-yl)-2H-indazol-6-yl)piperidin-1-yl)-2-oxoacetamido)nicotinamide]	< 100	< 5	< 75	A (“A” indicates an IC50 ratio greater than or equal to 30 fold)	> 50					
CCc1cc(NC(=O)C(=O)N2C[C@@H](C)CC[C@@H]2c2ccc3cn(CCN(C)C)nc3c2)cnc1N [Compound 38, N-(6-amino-5-ethyl-3-pyridyl)-2-oxo-2-[(2R,5S)-2-[2-[2-(dimethylamino)ethyl]indazol-6-yl]-5-methyl-1-piperidyl]acetamide]	< 100	< 5	< 75	B (“B” indicates an IC50 ratio greater than or equal to 15 fold but lower than 30 fold)	> 50					
COc1ncc(NC(=O)C(=O)N2C[C@@H](C)CC[C@@H]2c2ccc3sc([C@@H]4C[C@@H](C)CN(C)C4)nc3c2)cc1C(N)=O (racemic) [Compound 94, 5-(2-((2R,5S)-2-(2-(1,5-dimethylpiperidin-3-yl)benzo[d]thiazol-5-yl)-5-methylpiperidin-1-yl)-2-oxoacetamido)-2-methoxynicotinamide]	< 100	< 5	< 75	A (“A” indicates an IC50 ratio greater than or equal to 30 fold)	> 50					
CCc1cc(NC(=O)C(=O)N2C[C@@H](C)CC[C@@H]2c2ccc3sc(C4=C(C)CN(C)CC4)nc3c2)cnc1N [Compound 84, N-(6-amino-5-ethylpyridin-3-yl)-2-((2R,5S)-2-(2-(1,5-dimethyl-1,2,3,6-tetrahydropyridin-4-yl)benzo[d]thiazol-5-yl)-5-methylpiperidin-1-yl)-2-oxoacetamide]	< 100	< 5	< 75	B (“B” indicates an IC50 ratio greater than or equal to 15 fold but lower than 30 fold)						> 50
CCc1cc(NC(=O)C(=O)N2C[C@@H](C)CC[C@@H]2c2ccc3c(C)n(C4CCN(C)CC4)nc3c2)cnc1N [Compound 19, N-(6-amino-5-ethyl-3-pyridyl)-2-oxo-2-[(2R,5S)-5-methyl-2-[3-methyl-2-(1-methyl-4-piperidyl)indazol-6-yl]-1-piperidyl]acetamide]	< 100	< 5	< 75	A (“A” indicates an IC50 ratio greater than or equal to 30 fold)	> 50					
COc1ncc(NC(=O)C(=O)N2C[C@@H](C)CC[C@@H]2c2ccc3sc(C4=CCN(C)CCC4)nc3c2)cc1C(N)=O [Compound 46, 2-methoxy-5-(2-((2R,5S)-5-methyl-2-(2-(1-methyl-2,5,6,7-tetrahydro-1H-azepin-4-yl)benzo[d]thiazol-5-yl)piperidin-1-yl)-2-oxoacetamido)nicotinamide]	< 100	< 5	< 75	B (“B” indicates an IC50 ratio greater than or equal to 15 fold but lower than 30 fold)	5 to 50					

Source: patent publication US20250171432A1, “COMPOUNDS AND METHODS OF USE” (Tango Therapeutics, Inc., priority 2022, published 2025)
